Measured values taken from ChEMBL document CHEMBL1201862, “PubChem BioAssay data set” (2004).
Calls of active or inactive are those of the source. Unless noted, the calls are words filed in the database; no cut-off is given here.

How the values were obtained:
Type in all cases: functional
[1] = biological target: T1, Kappa-type opioid receptor (Homo sapiens, UniProt P41145); assay: SAR analysis of Antagonists of the Kappa Opioid Receptor (KOR) using an Image-Based Assay - Set 2. [Related pubchem assays (depositor defined):AID1777, AID1785, AID1786, AID1966, AID2133, AID2136, AID2284, AID2285, AID2348]
T1 sequence (P41145 whole entry): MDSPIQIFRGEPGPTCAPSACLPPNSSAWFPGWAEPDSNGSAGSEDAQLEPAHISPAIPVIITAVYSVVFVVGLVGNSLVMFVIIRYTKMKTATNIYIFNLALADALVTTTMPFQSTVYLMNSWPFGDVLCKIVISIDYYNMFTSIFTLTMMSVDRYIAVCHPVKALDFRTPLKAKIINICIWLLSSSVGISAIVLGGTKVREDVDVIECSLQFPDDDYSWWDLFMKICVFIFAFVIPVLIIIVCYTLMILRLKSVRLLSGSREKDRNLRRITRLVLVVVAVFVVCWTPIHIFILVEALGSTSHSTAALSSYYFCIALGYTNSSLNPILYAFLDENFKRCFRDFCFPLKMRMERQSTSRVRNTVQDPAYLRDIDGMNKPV

[2] = biological target: T2, Delta-type opioid receptor (Homo sapiens, UniProt P41143); assay: SAR Analysis of Antagonists of the DOR Receptor using an Image-Based Assay - Set 2. [Related pubchem assays (depositor defined):AID1777, AID1785, AID1786, AID1966, AID2133, AID2136, AID2284, AID2285, AID2357]
T2 sequence (P41143 whole entry): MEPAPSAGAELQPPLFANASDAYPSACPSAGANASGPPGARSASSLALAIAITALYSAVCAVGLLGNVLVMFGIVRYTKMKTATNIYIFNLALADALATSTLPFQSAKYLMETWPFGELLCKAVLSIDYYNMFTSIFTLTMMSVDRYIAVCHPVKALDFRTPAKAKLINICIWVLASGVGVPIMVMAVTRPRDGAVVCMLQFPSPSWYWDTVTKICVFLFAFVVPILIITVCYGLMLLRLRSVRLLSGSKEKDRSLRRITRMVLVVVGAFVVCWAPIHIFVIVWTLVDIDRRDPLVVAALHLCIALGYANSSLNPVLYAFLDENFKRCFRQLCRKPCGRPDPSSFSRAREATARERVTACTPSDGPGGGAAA

[3] = biological target: T2, Delta-type opioid receptor; assay: SAR Analysis of Agonists of the DOR Receptor using an Image-Based Assay - Set 2. [Related pubchem assays (depositor defined):AID1777, AID1785, AID1786, AID1966, AID2133, AID2136, AID2284, AID2285, AID2370]
[4] = biological target: T1, Kappa-type opioid receptor; assay: SAR analysis of Agonists of the Kappa Opioid Receptor (KOR) using an Image-Based Assay - Set 2. [Related pubchem assays (depositor defined):AID1777, AID1786, AID1966, AID2133, AID2136, AID2284, AID2285, AID2359]
[5] = biological target: T1, Kappa-type opioid receptor; assay: SAR analysis of small molecule agonists of the kappa opioid receptor via a luminescent beta-arrestin assay - Set 2. [Related pubchem assays (depositor defined):AID1777, AID1785, AID1786, AID1966, AID2133, AID2136, AID2284, AID449737]
[6] = biological target: T3, Mu-type opioid receptor (Homo sapiens, UniProt P35372); assay: SAR Analysis of Antagonists of the MOR Receptor using an Image-Based Assay - Set 2. [Related pubchem assays (depositor defined):AID1777, AID1785, AID1786, AID1966, AID2133, AID2136, AID2284, AID2285, AID2420]
T3 sequence (P35372 whole entry): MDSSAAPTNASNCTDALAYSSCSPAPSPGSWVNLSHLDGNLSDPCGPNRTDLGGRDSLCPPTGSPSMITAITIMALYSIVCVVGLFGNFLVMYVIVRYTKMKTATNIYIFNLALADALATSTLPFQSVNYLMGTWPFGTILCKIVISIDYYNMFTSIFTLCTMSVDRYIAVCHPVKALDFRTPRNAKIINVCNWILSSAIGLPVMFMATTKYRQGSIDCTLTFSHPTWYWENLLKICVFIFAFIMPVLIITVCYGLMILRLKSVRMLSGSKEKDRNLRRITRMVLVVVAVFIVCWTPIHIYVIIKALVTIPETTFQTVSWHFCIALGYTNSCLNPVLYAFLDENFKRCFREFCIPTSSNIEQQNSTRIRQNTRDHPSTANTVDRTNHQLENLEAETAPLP

[7] = biological target: T3, Mu-type opioid receptor; assay: SAR Analysis of Agonists of the MOR Receptor using an Image-Based Assay - Set 2. [Related pubchem assays (depositor defined):AID1777, AID1785, AID1786, AID1966, AID2133, AID2136, AID2284, AID2285, AID2352]
[8] = biological target: SUMO E1/E2 (Homo sapiens, UniProt P63279+Q9UBE0+Q9UBT2); assay: SAR analysis of SUMOylation using HTRF in an in-Vitro dose response assay. [Related pubchem assays (depositor defined):AID2006, AID2011, AID2018, AID2069, AID2658]
[9] = biological target: T4, Voltage-gated N-type calcium channel alpha-1B subunit/Amyloid beta A4 precursor protein-binding family A member 1 (Homo sapiens, UniProt Q00975+Q02410); assay: disruptors of Mint-PDZ/N-type channel peptide interaction – biochemical, HTRF, set 2, SAR follow-up (AID 434980)
T4 sequence (Q00975 whole entry): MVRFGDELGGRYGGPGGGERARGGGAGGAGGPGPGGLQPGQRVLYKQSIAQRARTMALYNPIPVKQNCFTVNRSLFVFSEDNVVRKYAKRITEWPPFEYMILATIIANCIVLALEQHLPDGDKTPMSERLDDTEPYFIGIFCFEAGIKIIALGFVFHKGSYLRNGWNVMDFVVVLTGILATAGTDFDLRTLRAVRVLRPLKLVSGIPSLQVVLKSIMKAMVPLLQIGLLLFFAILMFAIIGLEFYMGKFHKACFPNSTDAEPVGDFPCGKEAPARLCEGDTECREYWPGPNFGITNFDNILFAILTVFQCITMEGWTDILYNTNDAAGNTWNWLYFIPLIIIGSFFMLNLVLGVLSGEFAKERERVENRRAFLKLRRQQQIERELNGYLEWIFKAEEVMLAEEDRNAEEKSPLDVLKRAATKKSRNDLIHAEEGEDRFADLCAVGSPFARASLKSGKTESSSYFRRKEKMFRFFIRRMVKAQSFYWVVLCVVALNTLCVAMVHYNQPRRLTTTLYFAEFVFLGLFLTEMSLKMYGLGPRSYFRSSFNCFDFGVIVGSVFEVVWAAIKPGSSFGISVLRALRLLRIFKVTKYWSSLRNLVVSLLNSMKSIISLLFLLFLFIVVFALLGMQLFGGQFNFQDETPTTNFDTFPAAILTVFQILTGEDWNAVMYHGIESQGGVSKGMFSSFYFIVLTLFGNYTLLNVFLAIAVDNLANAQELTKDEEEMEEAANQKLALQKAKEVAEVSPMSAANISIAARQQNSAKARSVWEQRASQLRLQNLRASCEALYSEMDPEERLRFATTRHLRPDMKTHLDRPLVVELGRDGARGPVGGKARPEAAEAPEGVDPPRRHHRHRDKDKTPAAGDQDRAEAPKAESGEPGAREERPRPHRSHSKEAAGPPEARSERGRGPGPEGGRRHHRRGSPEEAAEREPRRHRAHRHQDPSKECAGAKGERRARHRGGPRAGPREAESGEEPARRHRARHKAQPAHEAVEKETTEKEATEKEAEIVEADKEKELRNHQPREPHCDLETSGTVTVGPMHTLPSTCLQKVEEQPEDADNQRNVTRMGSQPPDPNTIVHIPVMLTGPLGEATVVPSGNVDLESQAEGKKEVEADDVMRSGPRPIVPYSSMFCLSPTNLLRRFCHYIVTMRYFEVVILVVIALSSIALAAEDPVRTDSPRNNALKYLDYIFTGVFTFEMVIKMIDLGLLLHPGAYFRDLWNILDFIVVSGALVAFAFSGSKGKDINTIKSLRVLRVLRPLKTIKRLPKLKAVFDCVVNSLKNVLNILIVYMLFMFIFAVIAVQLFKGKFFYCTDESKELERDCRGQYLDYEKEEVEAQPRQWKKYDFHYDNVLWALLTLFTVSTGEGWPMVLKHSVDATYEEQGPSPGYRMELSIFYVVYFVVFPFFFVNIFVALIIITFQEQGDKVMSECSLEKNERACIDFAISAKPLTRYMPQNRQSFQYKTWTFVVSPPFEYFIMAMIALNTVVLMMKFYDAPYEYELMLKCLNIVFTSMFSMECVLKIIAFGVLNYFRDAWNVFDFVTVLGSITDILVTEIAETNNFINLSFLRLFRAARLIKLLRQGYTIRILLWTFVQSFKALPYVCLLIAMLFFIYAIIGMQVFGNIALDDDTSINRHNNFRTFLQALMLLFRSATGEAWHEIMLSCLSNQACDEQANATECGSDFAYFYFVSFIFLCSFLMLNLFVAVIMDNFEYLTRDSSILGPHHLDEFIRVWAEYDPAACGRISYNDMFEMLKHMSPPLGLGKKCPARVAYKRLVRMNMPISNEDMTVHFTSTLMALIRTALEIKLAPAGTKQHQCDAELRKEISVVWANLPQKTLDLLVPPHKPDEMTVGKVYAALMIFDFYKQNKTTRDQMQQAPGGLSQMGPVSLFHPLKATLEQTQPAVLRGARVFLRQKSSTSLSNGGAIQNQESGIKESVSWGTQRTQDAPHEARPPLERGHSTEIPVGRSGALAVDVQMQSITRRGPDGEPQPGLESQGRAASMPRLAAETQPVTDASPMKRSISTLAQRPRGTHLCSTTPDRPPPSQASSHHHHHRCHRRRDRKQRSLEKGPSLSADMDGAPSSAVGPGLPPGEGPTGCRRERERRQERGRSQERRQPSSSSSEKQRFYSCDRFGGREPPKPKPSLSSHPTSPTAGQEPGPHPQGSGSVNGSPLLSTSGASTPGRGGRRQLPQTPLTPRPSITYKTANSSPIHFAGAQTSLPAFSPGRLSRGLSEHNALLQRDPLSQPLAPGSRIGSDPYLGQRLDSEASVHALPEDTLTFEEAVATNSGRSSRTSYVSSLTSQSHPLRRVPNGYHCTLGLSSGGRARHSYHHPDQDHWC
T4 sequence (Q02410 whole entry): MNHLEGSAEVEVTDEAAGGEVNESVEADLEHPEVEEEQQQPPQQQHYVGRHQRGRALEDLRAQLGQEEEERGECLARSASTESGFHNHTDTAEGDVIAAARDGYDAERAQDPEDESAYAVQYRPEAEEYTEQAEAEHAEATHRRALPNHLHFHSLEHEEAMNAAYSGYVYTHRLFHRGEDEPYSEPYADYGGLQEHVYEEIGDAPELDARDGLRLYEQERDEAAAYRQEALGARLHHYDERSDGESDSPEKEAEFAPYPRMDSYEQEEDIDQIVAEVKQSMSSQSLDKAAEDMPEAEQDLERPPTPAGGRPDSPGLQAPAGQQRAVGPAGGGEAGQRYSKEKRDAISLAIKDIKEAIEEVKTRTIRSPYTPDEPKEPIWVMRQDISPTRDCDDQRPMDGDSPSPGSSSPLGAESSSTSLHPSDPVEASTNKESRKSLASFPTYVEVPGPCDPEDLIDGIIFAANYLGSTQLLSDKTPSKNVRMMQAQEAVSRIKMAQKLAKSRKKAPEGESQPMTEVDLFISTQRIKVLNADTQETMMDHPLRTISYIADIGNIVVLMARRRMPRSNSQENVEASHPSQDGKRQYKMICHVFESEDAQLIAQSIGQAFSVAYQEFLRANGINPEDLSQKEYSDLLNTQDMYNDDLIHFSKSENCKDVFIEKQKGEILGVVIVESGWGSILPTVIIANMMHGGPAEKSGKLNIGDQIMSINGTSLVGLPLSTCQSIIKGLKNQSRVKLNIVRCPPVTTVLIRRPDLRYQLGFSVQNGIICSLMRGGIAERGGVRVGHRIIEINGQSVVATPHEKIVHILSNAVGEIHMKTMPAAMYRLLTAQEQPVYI

[10] = biological target: T4, Voltage-gated N-type calcium channel alpha-1B subunit/Amyloid beta A4 precursor protein-binding family A member 1; assay: disruptors of Mint-PDZ/N-type channel peptide interaction – biochemical, HTRF, SAR follow-up (AID 2489)

| Compound | IC50 [1] | IC50 [2] | EC50 [3] | EC50 [4] | EC50 [5] | IC50 [6] | EC50 [7] | IC50 [8] | IC50 [9] | IC50 [10] |
| --- | --- | --- | --- | --- | --- | --- | --- | --- | --- | --- |
| c1ccc(CSc2nnc(-c3ccccn3)n2Cc2ccco2)cc1 | > 32 µM (inactive) | > 32 µM (inactive) | > 32 µM (inactive) | > 32 µM (inactive) | 17.9 µM (inactive) | > 32 µM (inactive) | > 32 µM (inactive) | – | – | – |
| COc1ccc(CCNC(=O)COC(=O)c2cc(-c3ccco3)nc3ccccc23)cc1 | – | – | – | – | – | – | – | 11.5 µM (active) | 12.2 µM (active) | 32.9 µM (active) |
